Measurements from patent US8912227B1, “Bicyclic pyrrole derivatives useful as agonists of GPR120” (Janssen Pharmaceutica NV, priority 2014, dated 2014).

Experiments:
[1] = target: T1, Human GPR120 short form (Homo sapiens, UniProt Q5NUL3); test: Human GPR120 calcium flux assay, Procedure Calcium A; format: cell-based; conditions: HEK-293 cells expressing human GPR120 short form, 2500 cells/well, FLIPR
T1 construct: expressed in transfected cells
T1 sequence (Q5NUL3 1-361): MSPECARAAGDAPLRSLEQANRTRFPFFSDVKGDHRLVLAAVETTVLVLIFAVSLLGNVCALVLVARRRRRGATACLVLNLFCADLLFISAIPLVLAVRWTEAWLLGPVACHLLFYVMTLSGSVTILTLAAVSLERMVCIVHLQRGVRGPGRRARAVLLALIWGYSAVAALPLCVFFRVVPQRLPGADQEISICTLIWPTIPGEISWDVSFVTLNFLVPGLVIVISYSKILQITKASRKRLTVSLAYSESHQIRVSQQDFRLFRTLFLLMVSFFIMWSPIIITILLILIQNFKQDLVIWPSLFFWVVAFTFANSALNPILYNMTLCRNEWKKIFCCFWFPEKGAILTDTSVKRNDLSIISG
Outline: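 HEK293 cells stably expressing the human GPR120 short splice variant (NM_001195755.1) were seeded at 2500 cells/well, serum-starved 1 h and loaded with Fluo-4 NW plus probenecid. Compounds (100–0.012 μM solutions, 0.2% final DMSO) were added, and FLIPR calcium flux was read for 300 s. EC50 came from a variable-slope fit (Hill <2) of Fmax−Fmin.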

[2] = tested on: C57bl/6J Mice; test: GPR120 C57bl6 mouse IPGTT; format: in vivo; conditions: 30.0 mg/kg, dosed 30 minutes prior to IP glucose 1.5 g/kg; compared with vehicle
Procedure: Male, C57bl/6J Mice were ordered in at 8 weeks of age from Jackson Labs. Individual mice weighed anywhere in the range of 25-30 grams on study day. The mice were fasted, with removal of food occurring at 7 am on the morning of the study. Animals were moved into the room at 10:00 am, to give them time to acclimate. Glucose (insulin syringes) was drawn up either the night before or the morning of the study. Glucose was dosed (IP) at 1.5 g/kg at 7.5 ml/kg (20% glucose straight TEKNOVA, 250 ml sterile bottle w/ catalogue number G0525). Test compounds were kept spinning and were only drawn into the syringes prior to study commencement. Animals were bled via tail snip to determine basal glucose levels prior to dosing of treatments. An Ascensia BREEZE Blood Glucose Monitoring System by Bayer (using unique 10-test disks) was used for determining glucose levels. The bleeds started at approximately 12:45 pm and dosing started, at 1-minute intervals, immediately after. All groups were dosed 30 minutes prior to glucose administration at a dose volume of 10 ml/kg (the dose volume was calculated separately for each individual animal). Thirty minutes after the first dose animals were bled again for a second baseline, or T=0, and immediately dosed with glucose via an i.p. injection. The exact dose volume for glucose was also calculated separately for each individual animal. […]

[3] = target: T1, Human GPR120 short form; test: Human GPR120 calcium flux assay, Procedure Calcium B; format: cell-based; conditions: HEK-293 cells expressing human GPR120 short form, 4200 cells/well, FLIPR

Structure (SMILES)	EC50 [1] [µM]	GPR120 C57bl6 Mouse IPGTT Results [2]	EC50 [3] [µM]
Cc1c(CCC(=O)O)ccc(OCc2cccn2-c2ccc(Cl)cc2)c1C [Compound 1, 3-(4-{[1-(4-Chlorophenyl)-1H-pyrrol-2-yl]methoxy}-2,3-dimethylphenyl)propanoic acid]	0.353	not different	
OCCCc1ccc(OCc2c(C(F)(F)F)ccn2-c2ccc(Cl)cc2)c(F)c1F [Compound 29, 3-(4-{[1-(4-Chlorophenyl)-3-(trifluoromethyl)-1H-pyrrol-2-yl]methoxy}-2,3-difluorophenyl)propan-1-ol]	1.01		0.162
CCc1ccc(-n2ccc(C(F)(F)F)c2COc2ccc(CCC(=O)O)c(F)c2F)cc1 [Compound 34, 3-(4-[[1-(4-ethylphenyl)-3-(trifluoromethyl)-1H-pyrrol-2-yl]methoxy]-2,3-difluorophenyl)propanoic acid]	0.517		0.04
Cc1ccc(-n2ccc(C(F)(F)F)c2COc2c(F)cc(CCC(=O)O)cc2F)cc1 [Compound 39, 3-(3,5-difluoro-4-[[1-(4-methylphenyl)-3-(trifluoromethyl)-1H-pyrrol-2-yl]methoxy]phenyl)propanoic acid]	0.306		0.05
